Measurements: ChEMBL document CHEMBL4393680, “Design, synthesis and biological evaluation of novel thioquinazolinone-based 2-aminobenzamide derivatives as potent histone deacetylase (HDAC) inhibitors” (Eur J Med Chem, 2019)
One block for each compound: values may come before it.

Columns and labels:
[1] = system: A-375; assay: Antiproliferative activity against human A375 cells assessed as reduction in cell growth at 2 uM incubated for 72 hrs by CCK-8 assay relative to control; format: functional; settings: A-375, 72 h
[2] = system: A549; assay: Antiproliferative activity against human A549 cells assessed as reduction in cell growth incubated for 72 hrs by CCK-8 assay; format: functional, cell-based; settings: A549, 72 h
[3] = system: SMMC-7721; assay: Antiproliferative activity against human SMMC7721 cells assessed as reduction in cell growth at 8 uM incubated for 72 hrs by CCK-8 assay relative to control; format: functional; settings: SMMC-7721, 72 h
[4] = system: HCT-116; assay: Antiproliferative activity against human HCT116 cells assessed as reduction in cell growth at 2 uM incubated for 72 hrs by CCK-8 assay relative to control; format: functional; settings: HCT-116, 72 h
[5] = system: A-375; assay: Antiproliferative activity against human A375 cells assessed as reduction in cell growth at 8 uM incubated for 72 hrs by CCK-8 assay relative to control; format: functional; settings: A-375, 72 h
[6] = system: SMMC-7721; assay: Antiproliferative activity against human SMMC7721 cells assessed as reduction in cell growth at 2 uM incubated for 72 hrs by CCK-8 assay relative to control; format: functional; settings: SMMC-7721, 72 h
[7] = system: A549; assay: Antiproliferative activity against human A549 cells assessed as reduction in cell growth at 8 uM incubated for 72 hrs by CCK-8 assay relative to control; format: functional; settings: A549, 72 h
[8] = system: HeLa; assay: Antiproliferative activity against human HeLa cells assessed as reduction in cell growth at 2 uM incubated for 72 hrs by CCK-8 assay relative to control; format: functional
[9] = system: HCT-116; assay: Antiproliferative activity against human HCT116 cells assessed as reduction in cell growth at 8 uM incubated for 72 hrs by CCK-8 assay relative to control; format: functional; settings: HCT-116, 72 h
[10] = system: HeLa; assay: Antiproliferative activity against human HeLa cells assessed as reduction in cell growth at 8 uM incubated for 72 hrs by CCK-8 assay relative to control; format: functional
[11] = system: A549; assay: Antiproliferative activity against human A549 cells assessed as reduction in cell growth at 2 uM incubated for 72 hrs by CCK-8 assay relative to control; format: functional; settings: A549, 72 h
[12] = system: SMMC-7721; assay: Antiproliferative activity against human SMMC7721 cells assessed as reduction in cell growth incubated for 72 hrs by CCK-8 assay; format: functional, cell-based; settings: SMMC-7721, 72 h
[13] = system: A-375; assay: Antiproliferative activity against human A375 cells assessed as reduction in cell growth incubated for 72 hrs by CCK-8 assay; format: functional, cell-based; settings: A-375, 72 h
[14] = system: HCT-116; assay: Antiproliferative activity against human HCT116 cells assessed as reduction in cell growth incubated for 72 hrs by CCK-8 assay; format: functional, cell-based; settings: HCT-116, 72 h
[15] = system: HeLa; assay: Antiproliferative activity against human HeLa cells assessed as reduction in cell growth incubated for 72 hrs by CCK-8 assay; format: functional, cell-based
[16] = system: SMMC-7721; assay: Induction of apoptosis in human SMMC7721 cells assessed as late apoptotic cells at 1 uM incubated for 48 hrs by Annexin-V-FITC/propidium iodide staining based flow cytometry (Rvb=1.73%); format: functional
[17] = system: SMMC-7721; assay: Cell cycle arrest in human SMMC7721 cells assessed as accumulation at G2/M phase at 1 uM incubated for 48 hrs by propidium iodide staining based flow cytometry (Rvb=16.17%); format: functional
[18] = system: SMMC-7721; assay: Induction of apoptosis in human SMMC7721 cells assessed as necrotic cells at 4 uM incubated for 48 hrs by Annexin-V-FITC/propidium iodide staining based flow cytometry (Rvb=1.88%); format: functional
[19] = system: SMMC-7721; assay: Cell cycle arrest in human SMMC7721 cells assessed as accumulation at S phase at 4 uM incubated for 48 hrs by propidium iodide staining based flow cytometry (Rvb=6.83%); format: functional
[20] = system: SMMC-7721; assay: Cell cycle arrest in human SMMC7721 cells assessed as accumulation at G0/G1 phase at 1 uM incubated for 48 hrs by propidium iodide staining based flow cytometry (Rvb=77%); format: functional
[21] = system: SMMC-7721; assay: Induction of apoptosis in human SMMC7721 cells assessed as early apoptotic cells at 4 uM incubated for 48 hrs by Annexin-V-FITC/propidium iodide staining based flow cytometry (Rvb=2.88%); format: functional
[22] = system: SMMC-7721; assay: Cell cycle arrest in human SMMC7721 cells assessed as accumulation at G0/G1 phase at 4 uM incubated for 48 hrs by propidium iodide staining based flow cytometry (Rvb=77%); format: functional
[23] = system: SMMC-7721; assay: Induction of apoptosis in human SMMC7721 cells assessed as viable cells at 0.25 uM incubated for 48 hrs by Annexin-V-FITC/propidium iodide staining based flow cytometry (Rvb=93.5%); format: functional; settings: SMMC-7721, 48 h, read-out: Activity
[24] = system: SMMC-7721; assay: Induction of apoptosis in human SMMC7721 cells assessed as early apoptotic cells at 0.25 uM incubated for 48 hrs by Annexin-V-FITC/propidium iodide staining based flow cytometry (Rvb=2.88%); format: functional
[25] = system: SMMC-7721; assay: Cell cycle arrest in human SMMC7721 cells assessed as accumulation at S phase at 0.25 uM incubated for 48 hrs by propidium iodide staining based flow cytometry (Rvb=6.83%); format: functional
[26] = system: SMMC-7721; assay: Cell cycle arrest in human SMMC7721 cells assessed as accumulation at G2/M phase at 0.25 uM incubated for 48 hrs by propidium iodide staining based flow cytometry (Rvb=16.17%); format: functional
[27] = system: SMMC-7721; assay: Induction of apoptosis in human SMMC7721 cells assessed as viable cells at 4 uM incubated for 48 hrs by Annexin-V-FITC/propidium iodide staining based flow cytometry (Rvb=93.5%); format: functional; settings: SMMC-7721, 48 h, read-out: Activity
[28] = system: SMMC-7721; assay: Cell cycle arrest in human SMMC7721 cells assessed as accumulation at G2/M phase at 4 uM incubated for 48 hrs by propidium iodide staining based flow cytometry (Rvb=16.17%); format: functional
[29] = system: SMMC-7721; assay: Induction of apoptosis in human SMMC7721 cells assessed as viable cells at 1 uM incubated for 48 hrs by Annexin-V-FITC/propidium iodide staining based flow cytometry (Rvb=93.5%); format: functional; settings: SMMC-7721, 48 h, read-out: Activity
[30] = system: SMMC-7721; assay: Induction of apoptosis in human SMMC7721 cells assessed as necrotic cells at 0.25 uM incubated for 48 hrs by Annexin-V-FITC/propidium iodide staining based flow cytometry (Rvb=1.88%); format: functional
[31] = system: SMMC-7721; assay: Cell cycle arrest in human SMMC7721 cells assessed as accumulation at G0/G1 phase at 0.25 uM incubated for 48 hrs by propidium iodide staining based flow cytometry (Rvb=77%); format: functional
[32] = system: SMMC-7721; assay: Induction of apoptosis in human SMMC7721 cells assessed as early apoptotic cells at 1 uM incubated for 48 hrs by Annexin-V-FITC/propidium iodide staining based flow cytometry (Rvb=2.88%); format: functional
[33] = system: NIH3T3; assay: Cytotoxicity against mouse NIH/3T3 cells assessed as reduction in cell viability after 48 hrs by CCK8 assay; format: cell-based; settings: NIH3T3, 48 h
[34] = system: SMMC-7721; assay: Induction of apoptosis in human SMMC7721 cells assessed as late apoptotic cells at 4 uM incubated for 48 hrs by Annexin-V-FITC/propidium iodide staining based flow cytometry (Rvb=1.73%); format: functional
[35] = system: SMMC-7721; assay: Cell cycle arrest in human SMMC7721 cells assessed as accumulation at S phase at 1 uM incubated for 48 hrs by propidium iodide staining based flow cytometry (Rvb=6.83%); format: functional
[36] = system: SMMC-7721; assay: Induction of apoptosis in human SMMC7721 cells assessed as late apoptotic cells at 0.25 uM incubated for 48 hrs by Annexin-V-FITC/propidium iodide staining based flow cytometry (Rvb=1.73%); format: functional
[37] = system: SMMC-7721; assay: Induction of apoptosis in human SMMC7721 cells assessed as necrotic cells at 1 uM incubated for 48 hrs by Annexin-V-FITC/propidium iodide staining based flow cytometry (Rvb=1.88%); format: functional

Compound: CCCn1c(SCc2ccc(/C=C/C(=O)Nc3ccccc3N)cc2)nc2cc(Cl)ccc2c1=O
- inhibition at 2 µM [1]: 20.5%
- IC50 [2]: 3960 nM
- inhibition at 8 µM [3]: 40.2%
- inhibition at 2 µM [4]: 18.2%
- inhibition at 8 µM [5]: 48.2%
- inhibition at 2 µM [6]: 6.6%
- inhibition at 8 µM [7]: 61.5%
- inhibition at 2 µM [8]: 32.7%
- inhibition at 8 µM [9]: 27.3%
- inhibition at 8 µM [10]: 41.5%
- inhibition at 2 µM [11]: 34.3%

Compound: Nc1ccccc1NC(=O)c1ccc(CNC(=O)OCc2cccnc2)cc1 [ENTINOSTAT]
- Activity [16]: 9.39%
- Activity [17]: 14.35%
- inhibition at 2 µM [1]: 30.2%
- Activity [18]: 5.64%
- IC50 [2]: 7150 nM
- inhibition at 8 µM [3]: 48.7%
- inhibition at 2 µM [4]: 67.3%
- Activity [19]: 14.21%
- Activity [20]: 76.1%
- inhibition at 8 µM [5]: 83.1%
- Activity [21]: 12.5%
- Activity [22]: 71.44%
- viability at 0.25 µM [23]: 91.4%
- Activity [24]: 4.13%
- inhibition at 2 µM [6]: 28.2%
- Activity [25]: 9.47%
- inhibition at 8 µM [7]: 47.3%
- Activity [26]: 15.43%
- viability at 4 µM [27]: 53.9%
- IC50 [15]: 2360 nM
- Activity [28]: 14.35%
- viability at 1 µM [29]: 81.5%
- Activity [30]: 1.18%
- inhibition at 2 µM [8]: 42.4%
- Activity [31]: 75.1%
- Activity [32]: 6.66%
- inhibition at 8 µM [9]: 72.3%
- IC50 [33]: 2420 nM
- Activity [34]: 27.9%
- Activity [35]: 9.55%
- inhibition at 8 µM [10]: 89.8%
- Activity [36]: 3.31%
- inhibition at 2 µM [11]: 20%
- Activity [37]: 2.5%

The next lines start with results.

- IC50 [2]: 8440 nM
- IC50 [12]: 2670 nM
- IC50 [13]: 5260 nM
- IC50 [14]: 3060 nM
Compound: Cc1cccc2c(=O)n(C)c(SCc3ccc(C(=O)Nc4ccccc4N)cc3)nc12
- inhibition at 2 µM [1]: 48.3%
- inhibition at 8 µM [3]: 74.4%
- inhibition at 2 µM [4]: 42.7%
- inhibition at 8 µM [5]: 54.9%
- inhibition at 2 µM [6]: 54.3%
- inhibition at 8 µM [7]: 66.8%
- inhibition at 2 µM [8]: 47.3%
- inhibition at 8 µM [9]: 76.4%
- inhibition at 8 µM [10]: 51.4%
- inhibition at 2 µM [11]: 38%

- IC50 [12]: 3320 nM
- IC50 [15]: 4990 nM
- IC50 [13]: 3010 nM
- IC50 [14]: 2220 nM
Compound: Cn1c(SCc2ccc(C(=O)Nc3ccccc3N)cc2)nc2cc(Cl)ccc2c1=O
- inhibition at 2 µM [1]: 44.5%
- inhibition at 8 µM [3]: 73.2%
- inhibition at 2 µM [4]: 58.7%
- inhibition at 8 µM [5]: 51.2%
- inhibition at 2 µM [6]: 38.9%
- inhibition at 8 µM [7]: 22.3%
- inhibition at 2 µM [8]: 51.1%
- inhibition at 8 µM [9]: 81.5%
- inhibition at 8 µM [10]: 76.5%
- inhibition at 2 µM [11]: 21.8%

- IC50 [12]: 1670 nM
- IC50 [15]: 950 nM
- IC50 [13]: 2570 nM
- IC50 [14]: 2010 nM
Compound: Cc1ccc2nc(SCc3ccc(C(=O)Nc4ccccc4N)cc3)n(C)c(=O)c2c1
- inhibition at 2 µM [1]: 44.6%
- inhibition at 8 µM [3]: 75.7%
- inhibition at 2 µM [4]: 49.2%
- inhibition at 8 µM [5]: 73.6%
- inhibition at 2 µM [6]: 65.6%
- inhibition at 8 µM [7]: 33.9%
- inhibition at 2 µM [8]: 63%
- inhibition at 8 µM [9]: 79.3%
- inhibition at 8 µM [10]: 85.5%
- inhibition at 2 µM [11]: 18.2%
